Measurements from the supplement of paper PMC11061612.

Columns and labels:
Carboplatin = compound: C1CC(C1)(C(=O)[O-])C(=O)[O-].N.N.[Pt+2] [Carboplatin]; details: max 10 µM
Method in brief: (§1)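 Cancer cell lines were seeded in 1536-well plates in 7.5 μl DMEM/F12 or RPMI with 10% FBS, held 24 hours at 37°C and 5% CO2, then dosed for 72 hours (final DMSO typically 0.2%). Viability was read by CellTiter-Glo 2.0 luminescence and scaled between blank-well and DMSO-well means. The single-agent IC50 comes from dose responses fitted to a two-parameter logistic curve with a non-linear mixed effects model.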

AZD5363 = compound: C1CN(CCC1(C(=O)N[C@@H](CCO)C2=CC=C(C=C2)Cl)N)C3=NC=NC4=C3C=CN4 [AZD5363]; details: max 10 µM
Method in brief: as §1

AZD1775 = compound: C=CCn1c(=O)c2cnc(Nc3ccc(N4CCN(C)CC4)cc3)nc2n1-c1cccc(C(C)(C)O)n1 [AZD1775]; details: max 3 µM
Method in brief: as §1

Trametinib = compound: CC(=O)Nc1cccc(-n2c(=O)n(C3CC3)c(=O)c3c(Nc4ccc(I)cc4F)n(C)c(=O)c(C)c32)c1 [Trametinib]; details: max 1 µM
Method in brief: as §1

Paclitaxel = compound: CC(=O)O[C@H]1C(=O)[C@@]2(C)[C@H]([C@H](OC(=O)c3ccccc3)[C@]3(O)C[C@H](OC(=O)[C@H](O)[C@@H](NC(=O)c4ccccc4)c4ccccc4)C(C)=C1C3(C)C)[C@]1(OC(C)=O)CO[C@@H]1C[C@@H]2O [Paclitaxel]; details: max 3 µM
Method in brief: as §1

Palbociclib = compound: CC(=O)c1c(C)c2cnc(Nc3ccc(N4CCNCC4)cn3)nc2n(C2CCCC2)c1=O [Palbociclib]; details: max 10 µM
Method in brief: as §1

AZD1390 = compound: CC(C)n1c(=O)n(C)c2cnc3cc(F)c(-c4ccc(OCCCN5CCCCC5)nc4)cc3c21 [AZD1390]; details: max 0.3 µM
Method in brief: as §1

Venetoclax = compound: CC1(C)CCC(CN2CCN(c3ccc(C(=O)NS(=O)(=O)c4ccc(NCC5CCOCC5)c([N+](=O)[O-])c4)c(Oc4cnc5[nH]ccc5c4)c3)CC2)=C(c2ccc(Cl)cc2)C1 [Venetoclax]; details: max 1 µM
Method in brief: as §1

Dasatinib = compound: CC1=C(C(=CC=C1)Cl)NC(=O)C2=CN=C(S2)NC3=CC(=NC(=N3)C)N4CCN(CC4)CCO [Dasatinib]; details: max 2 µM
Method in brief: as §1

SG3199 = compound: CC1=CN2[C@@H](C1)C=NC3=CC(=C(C=C3C2=O)OC)OCCCCCOC4=C(C=C5C(=C4)N=C[C@@H]6CC(=CN6C5=O)C)OC [SG3199]; details: max 0.001 µM
Method in brief: as §1

AZD2811 = compound: CCN(CCO)CCCOc1ccc2c(Nc3cc(CC(=O)Nc4cccc(F)c4)[nH]n3)ncnc2c1 [AZD2811]; details: max 1 µM
Method in brief: as §1

SN-38 = compound: CCc1c2c(nc3ccc(O)cc13)-c1cc3c(c(=O)n1C2)COC(=O)[C@]3(O)CC [SN-38]; details: max 0.3 µM
Method in brief: as §1

AZD0156 = compound: CN(C)CCCOc1ccc(-c2ccc3ncc4c(c3c2)n(C2CCOCC2)c(=O)n4C)cn1 [AZD0156]; details: max 3 µM
Method in brief: as §1

AZD4320 = compound: CN(CC[C@H](CSC1=CC=CC=C1)NC2=C(C=C(C=C2)S(=O)(=O)NC(=O)C3=CC=C(C=C3)N4CCC(CC4)[C@H](C5=CC=CC=C5C6=CC=C(C=C6)Cl)O)S(=O)(=O)C(F)(F)F)CCO [AZD4320]; details: max 1 µM
Method in brief: as §1

Alisertib = compound: COc1cc(Nc2ncc3c(n2)-c2ccc(Cl)cc2C(c2c(F)cccc2OC)=NC3)ccc1C(=O)O [Alisertib]; details: max 10 µM
Method in brief: as §1

Etoposide = compound: COc1cc([C@@H]2c3cc4c(cc3[C@@H](O[C@@H]3O[C@@H]5CO[C@@H](C)O[C@H]5[C@H](O)[C@H]3O)[C@H]3COC(=O)[C@H]23)OCO4)cc(OC)c1O [Etoposide]; details: max 10 µM
Method in brief: as §1

Gefitinib = compound: COc1cc2ncnc(Nc3ccc(F)c(Cl)c3)c2cc1OCCCN1CCOCC1 [Gefitinib]; details: max 10 µM
Method in brief: as §1

Prexasertib = compound: COc1cccc(OCCCN)c1-c1cc(Nc2cnc(C#N)cn2)n[nH]1 [Prexasertib]; details: max 1 µM
Method in brief: as §1

Doxorubicin = compound: COc1cccc2c1C(=O)c1c(O)c3c(c(O)c1C2=O)C[C@@](O)(C(=O)CO)C[C@@H]3O[C@H]1C[C@H](N)[C@H](O)[C@H](C)O1 [Doxorubicin]; details: max 1 µM
Method in brief: as §1

AZD5153 = compound: COc1nnc2ccc(N3CCC(c4ccc(OCCN5CCN(C)C(=O)[C@H]5C)cc4)CC3)nn12 [AZD5153]; details: max 1 µM
Method in brief: as §1

Lapatinib = compound: CS(=O)(=O)CCNCc1ccc(-c2ccc3ncnc(Nc4ccc(OCc5cccc(F)c5)c(Cl)c4)c3c2)o1 [Lapatinib]; details: max 10 µM
Method in brief: as §1

AZD8186 = compound: C[C@@H](Nc1cc(F)cc(F)c1)c1cc(C(=O)N(C)C)cc2c(=O)cc(N3CCOCC3)oc12 [AZD8186]; details: max 10 µM
Method in brief: as §1

Crizotinib = compound: C[C@@H](Oc1cc(-c2cnn(C3CCNCC3)c2)cnc1N)c1c(Cl)ccc(F)c1Cl [Crizotinib]; details: max 10 µM
Method in brief: as §1

Savolitinib = compound: C[C@@H](c1ccc2nccn2c1)n1nnc2ncc(-c3cnn(C)c3)nc21 [Savolitinib]; details: max 1 µM
Method in brief: as §1

AZD6738 = compound: C[C@@H]1COCCN1C2=NC(=NC(=C2)C3(CC3)[S@](=N)(=O)C)C4=C5C=CNC5=NC=C4 [AZD6738]; details: max 10 µM
Method in brief: as §1

AZD5991 = compound: Cc1c2c(nn1C)CSCc1cc(n(C)n1)CSc1cc(c3ccccc3c1)OCCCc1c(C(=O)O)n(C)c3c-2c(Cl)ccc13 [AZD5991]; details: max 1 µM
Method in brief: as §1

AZD7648 = compound: Cc1cc2ncnn2cc1Nc1ncc2c(n1)n(C1CCOCC1)c(=O)n2C [AZD7648]; details: max 10 µM
Method in brief: as §1

Taselisib = compound: Cc1nc(-c2cn3c(n2)-c2ccc(-c4cnn(C(C)(C)C(N)=O)c4)cc2OCC3)n(C(C)C)n1 [Taselisib]; details: max 10 µM
Method in brief: as §1

Selumetinib = compound: Cn1cnc2c(F)c(Nc3ccc(Br)cc3Cl)c(C(=O)NOCCO)cc21 [Selumetinib]; details: max 10 µM
Method in brief: as §1

SRA737 = compound: N#Cc1cnc(Nc2cc(NC[C@H]3CNCCO3)c(C(F)(F)F)cn2)cn1 [SRA737]; details: max 10 µM
Method in brief: as §1

MK-2206 = compound: NC1(c2ccc(-c3nc4ccn5c(=O)[nH]nc5c4cc3-c3ccccc3)cc2)CCC1 [MK-2206]; details: max 10 µM
Method in brief: as §1

Gemcitabine = compound: Nc1ccn([C@@H]2O[C@H](CO)[C@@H](O)C2(F)F)c(=O)n1 [Gemcitabine]; details: max 0.3 µM
Method in brief: as §1

[1] = compound: O=C(Nc1ccc2[nH]nc(-c3ccncc3)c2c1)[C@@H]1CCN(CC(=O)N2CCN(c3ccc(-c4ncccn4)cc3)CC2)C1; details: max 5 µM
Method in brief: as §1

Olaparib = compound: O=C(c1cc(Cc2n[nH]c(=O)c3ccccc23)ccc1F)N1CCN(C(=O)C2CC2)CC1 [Olaparib]; details: max 10 µM
Method in brief: as §1

5-Fluorouracil = compound: O=c1[nH]cc(F)c(=O)[nH]1 [5-Fluorouracil]; details: max 20 µM
Method in brief: as §1

| Cell Line | IC50, cell viability 72 h (Carboplatin) | IC50, cell viability 72 h (AZD5363) | IC50, cell viability 72 h (AZD1775) | IC50, cell viability 72 h (Trametinib) | IC50, cell viability 72 h (Paclitaxel) | IC50, cell viability 72 h (Palbociclib) | IC50, cell viability 72 h (AZD1390) | IC50, cell viability 72 h (Venetoclax) | IC50, cell viability 72 h (Dasatinib) | IC50, cell viability 72 h (SG3199) | IC50, cell viability 72 h (AZD2811) | IC50, cell viability 72 h (SN-38) | IC50, cell viability 72 h (AZD0156) | IC50, cell viability 72 h (AZD4320) | IC50, cell viability 72 h (Alisertib) | IC50, cell viability 72 h (Etoposide) | IC50, cell viability 72 h (Gefitinib) | IC50, cell viability 72 h (Prexasertib) | IC50, cell viability 72 h (Doxorubicin) | IC50, cell viability 72 h (AZD5153) | IC50, cell viability 72 h (Lapatinib) | IC50, cell viability 72 h (AZD8186) | IC50, cell viability 72 h (Crizotinib) | IC50, cell viability 72 h (Savolitinib) | IC50, cell viability 72 h (AZD6738) | IC50, cell viability 72 h (AZD5991) | IC50, cell viability 72 h (AZD7648) | IC50, cell viability 72 h (Taselisib) | IC50, cell viability 72 h (Selumetinib) | IC50, cell viability 72 h (SRA737) | IC50, cell viability 72 h (MK-2206) | IC50, cell viability 72 h (Gemcitabine) | IC50, cell viability 72 h [1] | IC50, cell viability 72 h (Olaparib) | IC50, cell viability 72 h (5-Fluorouracil) |
| --- | --- | --- | --- | --- | --- | --- | --- | --- | --- | --- | --- | --- | --- | --- | --- | --- | --- | --- | --- | --- | --- | --- | --- | --- | --- | --- | --- | --- | --- | --- | --- | --- | --- | --- | --- |
| D-392MG (Glioblastoma) | > 10000 nM | > 10000 nM | > 3000 nM | > 1000 nM | 245 nM | > 10000 nM | > 300 nM | > 1000 nM | > 2000 nM | > 1 nM | > 1000 nM | > 300 nM | > 3000 nM | > 1000 nM | > 10000 nM | > 10000 nM | > 10000 nM | 775 nM | > 1000 nM | > 1000 nM | > 10000 nM | > 10000 nM | > 10000 nM | > 1000 nM | > 10000 nM | > 1000 nM | > 10000 nM | > 10000 nM | > 10000 nM | > 10000 nM | > 10000 nM | > 300 nM | > 5000 nM | > 10000 nM | > 20000 nM |
| DOK (Oral Cavity Carcinoma) | > 10000 nM | 9610 nM | 1260 nM | 328 nM | 5.13 nM | > 10000 nM | > 300 nM | > 1000 nM | 165 nM | > 1 nM | > 1000 nM | 169 nM | > 3000 nM | > 1000 nM | 4510 nM | > 10000 nM | > 10000 nM | > 1000 nM | > 1000 nM | 652 nM | 5760 nM | > 10000 nM | > 10000 nM | > 1000 nM | > 10000 nM | > 1000 nM | > 10000 nM | 253 nM | 3660 nM | > 10000 nM | > 10000 nM | > 300 nM | 633 nM | > 10000 nM | > 20000 nM |
| FU-OV-1 (Ovarian Carcinoma) | > 10000 nM | > 10000 nM | > 3000 nM |  | > 3000 nM | > 10000 nM | > 300 nM | > 1000 nM | 1480 nM |  | > 1000 nM | > 300 nM | > 3000 nM | > 1000 nM | > 10000 nM | > 10000 nM | > 10000 nM | 694 nM |  | 511 nM | > 10000 nM | > 10000 nM | > 10000 nM | > 1000 nM | > 10000 nM | > 1000 nM | > 10000 nM | 1090 nM | > 10000 nM | > 10000 nM | > 10000 nM | > 300 nM | 3800 nM | > 10000 nM | > 20000 nM |
| TC-YIK (Other Solid Carcinomas) | > 10000 nM | > 10000 nM | 576 nM | 156 nM | 4.02 nM | > 10000 nM | > 300 nM | > 1000 nM | > 2000 nM |  | 21.9 nM | 1.86 nM | > 3000 nM | 57 nM |  | 1640 nM | > 10000 nM |  |  | 20.2 nM | > 10000 nM | > 10000 nM | 2500 nM | > 1000 nM | 1930 nM | > 1000 nM | > 10000 nM | > 10000 nM | 7130 nM | 4370 nM | > 10000 nM | 31.3 nM | 2730 nM | > 10000 nM | > 20000 nM |
